The text below walks through data of patent US20250186461A1, “METHODS AND COMPOSITIONS FOR TREATING AND/OR PREVENTING HERNIAS” (Northwestern University, priority 2023, published 2025).

The target in one test is T1, aromatase enzyme (Homo sapiens, UniProt P11511).
T1 sequence (P11511 1-503): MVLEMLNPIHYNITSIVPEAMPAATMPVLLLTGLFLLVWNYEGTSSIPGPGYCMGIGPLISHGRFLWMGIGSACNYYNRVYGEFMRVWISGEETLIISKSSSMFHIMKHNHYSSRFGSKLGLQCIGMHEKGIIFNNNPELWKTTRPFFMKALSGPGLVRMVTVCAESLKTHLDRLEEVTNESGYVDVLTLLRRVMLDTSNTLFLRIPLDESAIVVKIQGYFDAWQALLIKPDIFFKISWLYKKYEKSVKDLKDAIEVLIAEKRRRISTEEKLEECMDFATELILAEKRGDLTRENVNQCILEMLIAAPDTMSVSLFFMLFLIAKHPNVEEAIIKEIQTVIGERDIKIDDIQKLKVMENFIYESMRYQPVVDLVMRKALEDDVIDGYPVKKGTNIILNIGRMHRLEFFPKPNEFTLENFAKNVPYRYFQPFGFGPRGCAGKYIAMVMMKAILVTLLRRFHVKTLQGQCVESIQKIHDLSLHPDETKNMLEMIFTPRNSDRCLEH
As to conditions: cited from earlier work.

For a further test, the system named is WT mice. The test can be described thus: E2/P4-induced hernia formation in WT mice. The test is classed as in vivo, mouse. Conditions: WT male mice, concurrent treatment with P4+E2. The text has this: All placebo-treated Arom^hum mice developed hernias starting from 5 weeks of age. None of the WT littermates developed hernias. […] The mouse scrotum is connected to the peritoneal cavity with a narrow funicular (or inguinal) canal, with walls composed of LAM tissue. Structurally normal LAM tissue is essential to maintain the tone of this canal and prevent herniation of the bowel.
Experiment 1a1: Does the addition of P4 to E2 treatment accelerate LAM fibrosis and hernia formation in WT mice? It was shown that treatment of male WT mice with extremely high doses of systemic estrogens starting around or after the onset of puberty caused inguinal hernia in one third to half of these animals^23-25. We hypothesize that this effect is primarily mediated by the E2 induction of PGR expression in LAM fibroblasts. Male mice have readily detectable P4 levels in the circulation and LAM tissue to activate PGR in LAM fibroblasts (FIG. 6). If this were true, the addition of pharmacologic quantities of P4 (75 mg/pellet for 12-week release)^73 to E2 (0.3 mg/pellet for 12-week release)^23-25 in WT mice should accelerate this phenotype. Our ongoing preliminary study, whereby a 6-week treatment with P4+E2 induced large inguinal hernia in all WT mice (FIG. 7A), supports the following experiment. Long-term (8 weeks or longer) treatment with E2 only is anticipated to cause hernias in up to half of WT mice based on previous findings^23-25. We will determine whether P4+E2 treatment over 12 weeks will give rise to larger hernias in a higher number of mice compared with E2-only treatment. […] See Statistical Methods above for sample size calculation. Hernia surface area will be measured using a digital caliper and calculated as previously described (length×width)^19. At the designated endpoints, LAM and UAM (control) from each mouse will be resected, with one-half of the tissue snap-frozen in liquid nitrogen, and the other half fixed in 4% phosphate-buffered paraformaldehyde for histological and IHC analyses (see below). […]

The next test concerns the target T2, PGR (Homo sapiens, UniProt P06401).
T2 sequence (P06401 1-933): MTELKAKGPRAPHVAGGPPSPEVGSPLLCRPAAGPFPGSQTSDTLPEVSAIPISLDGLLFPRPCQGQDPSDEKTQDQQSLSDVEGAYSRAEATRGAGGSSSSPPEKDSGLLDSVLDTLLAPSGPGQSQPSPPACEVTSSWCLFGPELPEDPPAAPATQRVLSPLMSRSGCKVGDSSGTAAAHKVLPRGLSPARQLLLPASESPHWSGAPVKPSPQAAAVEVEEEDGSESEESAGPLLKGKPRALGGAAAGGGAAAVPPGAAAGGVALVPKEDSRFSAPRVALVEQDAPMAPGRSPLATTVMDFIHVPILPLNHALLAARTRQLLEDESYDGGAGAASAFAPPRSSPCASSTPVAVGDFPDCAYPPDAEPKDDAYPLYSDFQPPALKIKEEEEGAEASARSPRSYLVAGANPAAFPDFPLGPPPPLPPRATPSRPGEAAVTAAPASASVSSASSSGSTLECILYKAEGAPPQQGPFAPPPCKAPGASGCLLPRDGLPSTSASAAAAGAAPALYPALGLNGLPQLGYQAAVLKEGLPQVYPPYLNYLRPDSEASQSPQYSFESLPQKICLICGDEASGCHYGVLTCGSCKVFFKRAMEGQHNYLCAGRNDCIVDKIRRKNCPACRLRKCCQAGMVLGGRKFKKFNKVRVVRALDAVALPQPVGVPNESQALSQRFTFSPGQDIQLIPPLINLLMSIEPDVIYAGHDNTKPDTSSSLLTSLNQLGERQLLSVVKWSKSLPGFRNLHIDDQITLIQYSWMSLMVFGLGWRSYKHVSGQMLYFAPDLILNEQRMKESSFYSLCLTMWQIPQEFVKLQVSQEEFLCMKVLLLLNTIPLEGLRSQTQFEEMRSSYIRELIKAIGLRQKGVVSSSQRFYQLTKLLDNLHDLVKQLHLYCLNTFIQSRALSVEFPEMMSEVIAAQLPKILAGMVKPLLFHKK
Conditions: cited from earlier work.

For `CC#C[C@]1(O)CC[C@H]2[C@@H]3CCC4=CC(=O)CCC4=C3[C@@H](c3ccc(N(C)C)cc3)C[C@@]21C` [RU486, Mifepristone], on aromatase enzyme, the “inhibition of aromatase enzyme activity” value is on record as “does not inhibit aromatase enzyme activity”. In addition, the “prevention of P4+E2-induced large hernias” value in the test on WT mice is “completely prevented”.

Take `CC(=O)O[C@]1(C(C)=O)CC[C@H]2[C@@H]3CCC4=CC(=O)CCC4=C3[C@@H](c3ccc(N(C)C)cc3)C[C@@]21C` [UPA, Ulipristal acetate]: the “inhibition of aromatase enzyme activity” value on aromatase enzyme is “does not inhibit aromatase enzyme activity”. The “P4/PGR antagonism and PGR selectivity” value at PGR is reported as “very high PGR selectivity”.
